Molecules are shown by their SMILES.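 Tested at 5 concentrations; 48 h exposure; 96-well plates; endpoints linearly interpolated, else capped at highest concentration. TGI: concentration producing complete growth inhibition.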

Holding throughout (test): inhibition of tumour cell growth, NCI panel, 48 h
The subject of experiment [1] is NCI/ADR-RES ovarian.
The subject of experiment [2] is UACC-62 melanoma.
Experiment [3] relates to OVCAR-3 ovarian.
The test system of experiment [4] is T-47D breast.
Experiment [5] deals with OVCAR-8 ovarian.
For experiment [6], the system named is HL-60(TB) leukemia.
In experiment [7] the test system is IGROV1 ovarian.
The subject of experiment [8] is LOX IMVI melanoma.
Experiment [9] relates to OVCAR-5 ovarian.
The subject of experiment [10] is SF-268 CNS.
Experiment [11] has as its system SN12C renal.
Experiment [12] deals with KM12 colon.
In experiment [13] the test system is OVCAR-4 ovarian.

Turning to `NC(N)=NS(=O)(=O)c1ccc(Nc2c3ccccc3nc3c(C(=O)NC(CO)(CO)CO)cccc23)cc1`, the TGI is over 100 µM in [1]; 94.6 µM in experiment [2]; over 100 µM in [3]; over 100 µM in experiment [4]; over 100 µM in [5]; 71.4 µM in experiment [6]. For the same molecule, the TGI in experiment [7] is over 100 µM; in experiment [8] it was over 100 µM; in experiment [9], 65.4 µM; in [10] it was over 100 µM; in [11], over 100 µM; in [12], 38.5 µM.
As for `COC1=CC(=O)c2c(O)ccc(O)c2C1=O`, the TGI stood at 60.2 µM in [1]; 4.21 µM in [2]; 5.03 µM in experiment [3]; 41.3 µM in experiment [4]; 55.5 µM in experiment [5]; 23 µM in experiment [6]. The TGI came out at 27.2 µM in experiment [13]; 37.5 µM in [7]; 35.7 µM in [9]; 17.9 µM in [10]; 7.55 µM in experiment [11]; 16.4 µM in experiment [12].
Turning to `CC(C)c1ccc2c(c1)C=C1OC(=O)[C@]3(C)CCC[C@@]2(C)C13` (stereo partly drawn), the TGI in experiment [1], in experiment [2], in experiment [3], in [4], in experiment [5] and in [6] was over 100 µM in each case. The TGI in [13], in experiment [7], in experiment [10], in experiment [11] and in experiment [12] was over 100 µM throughout.
With `O=c1c2ccccc2c2c1c1c3ccccc3c(=O)c1c1c3ccccc3c(=O)c21`, the TGI in experiment [1], in [2], in experiment [3], in experiment [4], in experiment [5] and in experiment [6] was over 100 µM throughout. For the same molecule, the TGI in experiment [7], in [8], in experiment [9], in experiment [10], in experiment [11] and in experiment [12] was over 100 µM throughout.
Regarding `O=C1N(CN2CCOCC2)CN(CN2CCOCC2)C(=O)N1Cc1ccccc1`, the TGI was 61.7 µM in experiment [1]; 49.4 µM in [2]; 59.7 µM in experiment [3]; 77.1 µM in experiment [4]; 43.4 µM in experiment [5]; over 100 µM in [13]. Also, the TGI in experiment [7] is 64.9 µM; in [8] it was 33 µM; in [9], over 100 µM; in experiment [10], 53.1 µM; in experiment [11] it was 48.6 µM; in [12], 57.4 µM.
As for `CC(=O)N1C(C(=O)NNc2ccccc2)CSC1c1ccccc1` (stereo not drawn), the TGI in [1] was over 100 µM; in experiment [2] it was 61.8 µM; in experiment [3], over 100 µM; in experiment [4] it was over 100 µM; in experiment [5], over 100 µM; in experiment [13], over 100 µM. The TGI in experiment [7], in experiment [8], in experiment [9], in experiment [10], in experiment [11] and in [12] was over 100 µM throughout.
Turning to `O/N=C1/CCCCCC1NO` (stereo not drawn), the TGI in experiment [1], in experiment [2], in experiment [3], in experiment [4], in experiment [5] and in [13] was over 100 µM each time. The TGI in [7], in [8], in experiment [9], in experiment [10], in [11] and in experiment [12] was over 100 µM in each case.
Turning to `COc1cc(S(=O)(=O)Nc2ccc(-c3csc(N4C(=O)C(C)SC4c4ccccc4O)n3)cc2)ccc1Cl` (stereo not drawn), the TGI in experiment [1] is over 100 µM; in experiment [2], over 100 µM; in [3] it was over 100 µM; in [4] it was 31 µM; in experiment [5], over 100 µM; in experiment [6], 56.4 µM. The TGI in experiment [7] was over 100 µM; in experiment [8], over 100 µM; in experiment [9], over 100 µM; in experiment [10] it was 49.9 µM; in [11], over 100 µM; in [12], over 100 µM.
For the molecule `COc1ccc(N=Nc2c(C)c(C#N)c(=S)n(C3OC(COC(C)=O)C(OC(C)=O)C(OC(C)=O)C3OC(C)=O)c2-c2ccccc2)cc1` (stereo not drawn), the TGI in [1] was 24.4 µM; in [3], 31.1 µM; in experiment [4], 41.2 µM; in [6], over 100 µM; in experiment [13], 12.1 µM; in experiment [8], 17.9 µM. Further, the figures for the TGI in experiment [9], in experiment [11] and in [12] were 30.8 µM, 29.9 µM and 20.6 µM, respectively.
Regarding `CC(C)CCNC(=O)c1ccc(CNC(=O)/C=C/c2csc(-c3ccccc3)n2)cc1`, the TGI was over 100 µM in experiment [1]; over 100 µM in [2]; over 100 µM in experiment [3]; over 100 µM in experiment [4]; 79.2 µM in experiment [5]; over 100 µM in experiment [13]. For the same molecule, the TGI in experiment [7], in experiment [8], in experiment [9], in [10], in experiment [11] and in experiment [12] was over 100 µM in each case.
For `CC1C2(C)OC(=N)C(C#N)(C(c3ccco3)O2)C1(C#N)C#N` (stereo not drawn), the TGI was over 100 µM in [1]; 36.8 µM in experiment [2]; 47.9 µM in [3]; 45.9 µM in experiment [4]; over 100 µM in [5]; 48.3 µM in [6]. Moreover, the TGI in experiment [7] is over 100 µM; in [8], 40.5 µM; in experiment [9], 83.6 µM; in [10], over 100 µM; in experiment [11] it was 30.4 µM; in experiment [12], over 100 µM.
